In patent publication US9339454B2, “Skin whitening agent” (Kao Corporation, priority 2011, dated 2016):

Molecular target: T1, dopa oxidase (Homo sapiens, UniProt P14679)
T1 sequence (P14679 19-529): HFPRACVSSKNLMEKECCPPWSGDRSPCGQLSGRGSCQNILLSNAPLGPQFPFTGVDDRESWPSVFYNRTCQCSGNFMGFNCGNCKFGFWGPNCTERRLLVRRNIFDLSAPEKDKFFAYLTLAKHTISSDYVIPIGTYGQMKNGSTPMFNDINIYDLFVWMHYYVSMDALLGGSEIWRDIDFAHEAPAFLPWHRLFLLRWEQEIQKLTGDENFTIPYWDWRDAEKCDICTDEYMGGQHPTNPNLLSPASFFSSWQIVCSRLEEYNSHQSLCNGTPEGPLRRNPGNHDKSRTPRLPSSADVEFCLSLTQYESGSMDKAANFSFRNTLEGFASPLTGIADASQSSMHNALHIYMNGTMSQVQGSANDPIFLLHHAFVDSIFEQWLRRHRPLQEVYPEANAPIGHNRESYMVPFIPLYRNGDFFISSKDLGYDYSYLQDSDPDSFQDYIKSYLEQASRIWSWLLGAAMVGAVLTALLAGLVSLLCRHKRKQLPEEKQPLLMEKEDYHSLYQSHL
Experiment: Dopa oxidase activity in cultured melanocytes (MBTH method)
Assay type: cell-based
Conditions: for Dopa oxidase activity of fractions, result in words: activity-guided fractionation of haguro-so 50% ethanol extract, same procedure as Example 1; for inhibition at 0.1 µM: evaluation concentration 0.1 μM; for inhibition at 0.1 µM / inhibition at 0.5 µM / inhibition at 1 µM: relative to control, read-out: Dopa oxidase inhibitory rate (%); for inhibition at 0.5 µM: evaluation concentration 0.5 μM; for inhibition at 1 µM: evaluation concentration 1.0 μM
Method: Normal human neonatal epidermal melanocytes (NHEMs; KURABO INDUSTRIES, LTD.) were seeded in a 96-well plates at a density of 1×10^4 cells/well ([…]) and cultured at 37° C. under a 5% CO2. Cells were maintained in Medium 254 (KURABO INDUSTRIES, LTD.) containing growth supplement (HMGS) without PMA.
After 3-day culture, the haguro-so extracts (water extract, 50% ethanol extract, or 95% ethanol extract) prepared in accordance with the above Production Examples 1 to 3 and having an evaporation residue of 1.0 w/v % were each added to give a final concentration shown in Table 1 together with Endothelin-1 (ET-1), SCF, α-MSH, Histamine, and PGE2 adjusted to have a final concentration of 1 nM in each medium, and cultured under the conditions of 37° C. and a 5% CO2 for 3 days. For a control, an ethanol aqueous solution (10%, 50%, or 95%) of the equal amount was added.
After completion of culture, Alamar Blue (Invitrogen) reagent was added in an amount of 20 μL/well and incubated for 2 to 3 hours, followed by measuring the fluorescence intensity of the medium to measure the cellular respiration activity. […] The dopa oxidase activity was measured by the following method with reference to the MBTH method (Winder A. et al., 1991, Eur. J. Biochem. 198: 317-326).
To each of the wells containing the solubilized cell solution, 80 μL of the above assay buffer, 60 μL of 20.7 mM MBTH (3-methyl-2-benzothiazolinon hydrazone) solution, and 40 μL of 5 mM L-dopa(L-dihydroxyphenylalanine) solution as a substrate were added, reacted at 37° C. for 30 to 60 minutes, thereby measuring the color reaction thereof at 490 nm absorbance (N=3). The measured values were shown in the relative value to the result of the control.
Normal human neonatal epidermal melanocytes (NHEMs; KURABO INDUSTRIES, LTD.) were inoculated in a 96-well plate in a cell density of 1×10^4 cells/well (100 μL/well) and cultured at 37° C. under a 5% CO2. The medium used was Medium 254 containing PMA(−) growth supplement (HMGS).
After 3-day culture, each of the compounds shown in Table 4 was added to give final concentrations shown in the same Table, together with Endothelin-1 (ET-1), SCF, α-MSH, Histamine, and PGE2 adjusted to give a final concentration of 1 nM in each medium, and cultured under the conditions of 37° C. and a 5% CO2 for 3 days. For a control, a DMSO solution of the equal amount was added.
After completion of the culture, Alamar Blue (Invitrogen) reagent was added in an amount of 20 μL/well and incubated for 2 to 3 hours, followed by measuring the fluorescence intensity of the medium to measure the cellular respiration activity. […] The dopa oxidase activity was measured by the following method with reference to the MBTH method (Winder A. et al., Eur. J. Biochem., 1991, 198: 317-326).
To each of the wells containing the solubilized cell solution, 80 μL of the above assay buffer, 60 μL of 20.7 mM MBTH (3-methyl-2-benzothiazolinon hydrazone) solution and 40 μL of 5 mM L-dopa (L-dihydroxyphenylalanine) solution as a substrate were added, reacted at 37° C. for 30 to 60 minutes, thereby measuring the color reaction thereof at 490 nm absorbance (N=3).

## COc1cc2c(O[C@H]3OCC(O)(CO)C3O)c3c(c(-c4ccc5c(c4)OCO5)c2cc1OC)C(=O)OC3 (stereo partly shown) [Compound 3, Tuberculatin]
  Dopa oxidase activity of fractions, result in words: found
NHEMs, 3 days
  inhibition at 0.1 µM: 45%
  inhibition at 0.5 µM: 50%
  inhibition at 1 µM: 70%

## COc1c2c(c(-c3ccc4c(c3)OCO4)c3cc4c(cc13)OCO4)C(=O)OC2 [Compound 7, Justicidin F]
NHEMs, 3 days
  inhibition at 0.1 µM: 20%

## COc1cc2cc3c(c(-c4ccc5c(c4)OCO5)c2cc1OC)C(=O)OC3 [Compound 2, Justicidin B]
  Dopa oxidase activity of fractions, result in words: found
NHEMs, 3 days
  inhibition at 0.1 µM: 10%
  inhibition at 0.5 µM: 30%
  inhibition at 1 µM: 50%

## COc1cc2c(OC)c3c(c(-c4ccc5c(c4)OCO5)c2cc1OC)C(=O)OC3 [Compound 1, Justicidin A]
  Dopa oxidase activity of fractions, result in words: found
NHEMs, 3 days
  inhibition at 0.1 µM: 20%
  inhibition at 0.5 µM: 50%
Evaluation concentration printed 0.1 μM as third concentration after 0.1 and 0.5, NHEMs, 3 days
  Dopa oxidase inhibitory rate (%): 55%

## COc1cc2c(OC(C)=O)c3c(c(-c4ccc5c(c4)OCO5)c2cc1OC)C(=O)OC3 [Compound 6, 4-acetoxy-6,7-dimethoxy-9-(1,3-benzodioxol-5-yl)naphtho[2,3-c]furan-1(3H)-one]
NHEMs, 3 days
  inhibition at 0.5 µM: 40%
  inhibition at 1 µM: 50%

## COc1cc2c(O)c3c(c(-c4ccc5c(c4)OCO5)c2cc1OC)C(=O)OC3 [Compound 4, Diphyllin]
NHEMs, 3 days
  inhibition at 0.5 µM: 20%
  inhibition at 1 µM: 40%

## CCOc1c2c(c(-c3ccc4c(c3)OCO4)c3cc(OC)c(OC)cc13)C(=O)OC2 [Compound 5, 4-Ethoxy-6,7-dimethoxy-9-(1,3-benzodioxol-5-yl)naphtho[2,3-c]furan-1(3H)-one]
NHEMs, 3 days
  inhibition at 0.1 µM: 40%
  inhibition at 0.5 µM: 60%
